Laboratory results: patent US6518262B1, “22R-hydroxycholesta-8, 14-diene derivatives for the inhibition of meiosis” (Akzo Nobel N.V., priority 1999, dated 2003)

Test system: denuded oocytes (DO)
Assay: Oocyte assay, agonistic testing, denuded oocytes (DO assay)
Assay type: cell-based, mice (B6D2-F1, strain C57BL×DBA)
Conditions: compound 5 μM, hypoxanthine medium, 22 hours culture, control value in brackets
Text: Oocytes arrested in meiosis contain diffused chromosomes which are surrounded by an intact nuclear envelope known as the germinal vesicle (GV). Upon reinitiation of meiosis by the midcycle gonadotropin surge, the chromosomes recondense and the GV breaks down (GVBD). In vivo, the oocyte is exposed to hypoxanthine (HX), which maintains the oocyte arrested in the meiotic prophase. This meiotic arrest can be mimicked in vitro by addition of hypoxanthine to the culture medium. The agonistic activity of meiosis activating substances is measured as the ability to overcome the hypoxanthine maintained meiotic arrest in denuded oocytes (DO) or cumulus enclosed oocytes (CEO), i.e. as the ability to induce meiotic resumption in vitro.
Ovaries are obtained from immature female mice (B6D2-F1, strain C57BL×DBA). At the age of 19, 20 or 21 days the mice are injected subcutaneously with a single dose of 20 IU follicle stimulating hormone (Humegon, Organon, The Netherlands) in saline.
Forty-eight hours after follicle stimulating hormone injection mice are killed by cervical dislocation. The ovaries are removed, freed of extraneous tissue and placed in a multidish containing 0.5 ml preparation medium at 37° C. L-15 Leibovitz medium (Gibco, pH 7.3±0.1) supplemented with bovine serum albumin (3 mg·ml^−1), L-glutamine (0.23 mM), sodium pyruvate (2 mM) and hypoxanthine (4 mM) is used as preparation medium. The antral follicles of the ovaries are punctured under a dissecting microscope using two 27-gauge needles attached to two 1 ml syringes. Cumulus enclosed oocytes (CEO) of uniform size are selected with a mouth-controlled pipette and rinsed in 0.5 ml fresh preparation medium. About 20 CEO are obtained from one ovary.
Oocytes freed from cumulus cells, i.e. denuded oocytes (DO), are obtained by gently flushing CEO through a fine-bore mouth-controlled pipette. DO were collected in fresh MEM alpha medium, containing bovine serum albumin (3 mg·ml^−1), L-glutamine (0.23 mM), sodium pyruvate (2 mM) and hypoxanthine (4 mM), and washed twice before transfer to the test medium.
The oocyte assay is performed in 3 blocks, each block represents the ovaries of one mouse (randomized block design). […] At t=0 the number of oocytes with intact germinal vesicles (GV) or germinal vesicle break-down (GVBD) is counted under an inverted microscope with differential interference contrast equipment. […] At the end of the culture period the number of oocytes with GV or GVBD per group is counted. For statistical analysis the percentage germinal vesicle breakdown is calculated for each group in one block. These percentages are subjected to arcsin transformation, and differences between control and test compounds are analyzed by an ANOVA test for a randomized block design. […]

Row | Compound | % GVBD DO assay exp.
1 | CC(C)CC[C@@H](O)[C@@H](C)[C@H]1CC=C2C3=C(CC[C@@]21C)[C@@]1(C)CC[C@H](O)C(C)(C)[C@@H]1CC3 [Example 1, (3β,5α,20S,22R)-4,4-Dimethylcholesta-8,14-diene-3,22-diol] | 0(0) %
2 | CC(C)=CC[C@@H](O)[C@@H](C)[C@H]1CC=C2C3=C(CC[C@@]21C)[C@@]1(C)CC[C@H](O)C(C)(C)[C@@H]1CC3 [Example 2, (3β,5α,20S,22R)-4,4-Dimethylcholesta-8,14,24-triene-3,22-diol] | 3(3) %
